Test results taken from ChEMBL document CHEMBL4400539, “Discovery of a Novel Chemotype of Histone Lysine Methyltransferase EHMT1/2 (GLP/G9a) Inhibitors: Rational Design, Synthesis, Biological Evaluation, and Co-crystal Structure” (J Med Chem, 2019).

Experiments:
[1] = biological target: T1, Histone-lysine N-methyltransferase EHMT2 (Homo sapiens, UniProt Q96KQ7); assay: Inhibition of recombinant human G9a using biotinylated-Histone H3 peptide (1 to 21 residues) after 30 mins in presence of SAM by AlphaLISA assay
T1 sequence (Q96KQ7 whole entry): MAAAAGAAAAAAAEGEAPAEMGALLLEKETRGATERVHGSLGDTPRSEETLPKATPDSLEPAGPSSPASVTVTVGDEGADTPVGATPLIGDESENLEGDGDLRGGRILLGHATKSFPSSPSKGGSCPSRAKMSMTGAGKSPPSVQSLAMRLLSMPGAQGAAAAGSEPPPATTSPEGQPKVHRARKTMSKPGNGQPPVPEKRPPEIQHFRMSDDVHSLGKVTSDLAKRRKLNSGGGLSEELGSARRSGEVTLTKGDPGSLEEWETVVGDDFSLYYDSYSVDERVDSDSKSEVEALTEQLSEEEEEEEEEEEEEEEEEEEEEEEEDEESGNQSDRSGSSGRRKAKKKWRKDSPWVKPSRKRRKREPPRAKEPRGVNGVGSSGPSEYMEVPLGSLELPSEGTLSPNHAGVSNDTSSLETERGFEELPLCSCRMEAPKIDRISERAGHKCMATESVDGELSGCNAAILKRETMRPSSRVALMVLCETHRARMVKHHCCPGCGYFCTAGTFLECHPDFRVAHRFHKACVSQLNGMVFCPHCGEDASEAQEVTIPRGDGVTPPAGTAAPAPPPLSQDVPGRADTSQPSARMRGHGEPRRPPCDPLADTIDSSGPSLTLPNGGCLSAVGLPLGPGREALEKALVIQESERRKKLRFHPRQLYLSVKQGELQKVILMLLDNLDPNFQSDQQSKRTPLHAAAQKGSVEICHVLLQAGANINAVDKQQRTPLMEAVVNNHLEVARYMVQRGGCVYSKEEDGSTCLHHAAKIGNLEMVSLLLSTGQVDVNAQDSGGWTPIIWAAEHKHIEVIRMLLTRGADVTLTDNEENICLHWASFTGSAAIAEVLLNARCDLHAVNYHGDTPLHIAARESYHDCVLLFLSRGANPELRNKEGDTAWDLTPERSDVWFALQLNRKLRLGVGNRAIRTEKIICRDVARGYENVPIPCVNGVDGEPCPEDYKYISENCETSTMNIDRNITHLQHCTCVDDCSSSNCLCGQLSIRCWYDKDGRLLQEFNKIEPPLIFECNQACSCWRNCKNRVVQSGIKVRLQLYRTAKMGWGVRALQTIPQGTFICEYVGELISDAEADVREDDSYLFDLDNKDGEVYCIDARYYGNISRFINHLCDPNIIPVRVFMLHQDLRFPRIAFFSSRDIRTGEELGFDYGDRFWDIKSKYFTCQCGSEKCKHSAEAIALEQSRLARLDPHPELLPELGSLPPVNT

[2] = Metabolic stability in human liver microsomes assessed as parent compound turn over percentage at 1 mM preincubated for 5 mins followed by NADPH addition and measured for 60 mins by UHPLC analysis; format: ADME, Microsome; details: read-out: Drug metabolism
[3] = Apparent permeability of the compound after 24 hrs by PAMPA; format: ADME
[4] = Apparent permeability of the compound after 24 hrs by BBB-PAMPA; format: ADME
[5] = biological target: T1, Histone-lysine N-methyltransferase EHMT2; assay: Inhibition G9a (unknown origin)

IC50 [1] [nM]	SMILES	other results
2980	COc1cc2c(cc1OCCCN1CCCC1)N=C(C1CCCCC1)CC(NC1CCN(C(C)C)CC1)=N2	
	COc1cc2c(NC3CCN(C(C)C)CC3)nc(C3CCCCC3)nc2cc1OCCCN1CCCC1	metabolised at 1 h [2]: 2.93%; Papp [3]: 0.49 ×10⁻⁷ cm/s; Papp [4]: 0.19 ×10⁻⁷ cm/s
955	COc1cc2c(cc1OCCCN1CCCC1)NC(C1CCCCC1)CN=C2NC1CCN(C(C)C)CC1 (stereo not drawn)	
	COc1cc2c(NC3CCN(CCCCCN)CC3)nc(NCCCN(C)C)nc2cc1OCCCCCN	IC50 [5]: 160 nM
2090	COc1cc2c(cc1OCCCN1CCCC1)NC(c1ccccc1)CN=C2NC1CCN(C(C)C)CC1 (stereo not drawn)	
1090	COc1cc2c(cc1OCCCN1CCCC1)N=C(c1ccccc1)CN=C2NC1CCN(C(C)C)CC1	
